{"source": "patent US20250302804A1", "about": "“RESOMELAGON AND ITS DERIVATIVES FOR THE TREATMENT OF CARDIOVASCULAR DISEASE, HYPERTENSION AND ATHEROSCLEROSIS” (SYNACT PHARMA ApS, priority 2022, published 2025)", "key": {"[1]": {"system": "peritonitis", "conditions": "oral; cited from earlier work"}, "[2]": {"system": "acute peritonitis induced by zymosan A in mice", "assay": "Zymosan A-induced acute peritonitis in mice: IL-1β, IL-6 and neutrophil accumulation", "assay_type": "in vivo", "conditions": "1 mg/kg intraperitoneal 30 minutes before zymosan, 12 hours, N=6", "procedure": "Acute peritonitis was induced by the injection of 1 mg zymosan A (Sigma-Aldrich) i.p. in 0.5 ml sterile PBS in mice. Twelve hours later the mice were sacrificed by CO2 exposure, and peritoneal cavities were washed with 4 ml ice-cold PBS containing 3 mM EDTA. Cells were stained with Turk's solution (0.01% crystal violet in 3% acetic acid) and counted using a Neubauer hemocytometer or were stained with FITC-conjugated mAb for Ly-6G/Gr1, F4/80, and corresponding isotype controls (eBioscience, Hatfield, U.K.), and subjected to flow-cytometry analysis using a BD FACSCalibur platform (BD Biosciences, Oxford, U.K.). Levels of IL-1B and IL-6 in quick frozen samples were quantified according to the manufacturer's instructions using ELISA Ready-SET-Go! (eBioscience). All animal studies were approved by and performed under the guidelines of the Ethical Committee for the Use of Animals, Barts and The London School of Medicine and Home Office regulations (Guidance on the Operation of Animals, Scientific Procedures Act, 1986). Male (7-8 wk old) C57BL/6J wild-type (WT) mice were purchased from Charles River Laboratories. Test Item A, 1 mg/kg or vehicle treatment were given intraperitoneal 30 minutes before induction of the acute peritonitis. N=6 for in both groups."}, "[3]": {"system": "MC3R", "conditions": "cited from earlier work"}, "[4]": {"system": "melanocytes", "conditions": "cited from earlier work"}, "[5]": {"system": "early rheumatoid arthritis (RA) patients with active joint disease", "assay": "Phase IIa placebo-controlled study in early rheumatoid arthritis patients: CDAI", "assay_type": "in vivo, human", "conditions": "for CDAI group mean, Baseline / CDAI group mean, Screening / CDAI group mean, Week 4 / CDAI group mean, Week 2 / CDAI group mean, Week 5 / CDAI Difference / CDAI Difference in %: n = 31; for CDAI group mean, Baseline / CDAI group mean, Screening: before treatment; for CDAI group mean, Week 4: end of treatment; for CDAI group mean, Week 2: mid-treatment; for CDAI group mean, Week 5: one week follow-up after last dosage; for CDAI Difference / CDAI Difference in %: week 4 vs baseline", "procedure": "(§1) The study population will consist of newly diagnosed subjects with severe active RA (CDAI (Clinical disease activity score)>22) who are to start up-titration with methotrexate (MTX).\nThe doses used in this Example are calculated based on the specific acetate salt form.\nThe study population will consist of newly diagnosed subjects with severe active RA (CDAI >22) who are to start up-titration with MTX. A minimum of 90 subjects are expected to complete the study; plus 45 subjects from Bulgaria and/or Moldova for a sub-study. Up to 120 subjects are planned to be enrolled to account for discontinuation rate, and up to 60 subjects for the sub-study.\nThe CDAI is a clinical composite score for following patients with RA.\nDescriptive changes in CDAI where CDAI=SJC (28)+TJC (28)+PGA+IGA; • SJC (28): Swollen 28-Joint Count (shoulders, elbows, wrists, MCPs, PIPs including thumb IP, knees); • TJC (28): Tender 28-Joint Count (shoulders, elbows, wrists, MCPs, PIPs including thumb IP, knees); • PGA: Patient Global Disease Activity (patient's self-assessment of overall RA disease activity on a scale 0-100 where 100 is maximal activity); • IGA: Physician's Global Disease Activity (evaluator's assessment of the subject's overall RA disease activity on a scale 0-100 where 100 is maximal activity)\nThe CDAI will be scored at screening, baseline, after 2 weeks and 4 weeks treatment, and at the final visit (one week after final dose)."}, "[6]": {"system": "macrophages", "conditions": "cited from earlier work"}, "[7]": {"assay": "Phase IIa study in early RA patients: blood pressure and clinically notable vital sign abnormalities", "assay_type": "in vivo, human", "conditions": "for MAP Average/Median: MAP = DAP + ⅓(SAP − DAP); for CNA (clinically notable vital sign abnormalities): SAP ≥160, <90, DAP ≥105, <50", "from_the_text": "as §1\nSafety measures (AEs, SAEs, including laboratory abnormalities and vital signs such as blood pressure) will be registered during the whole study duration."}, "[8]": {"system": "MC1R", "conditions": "cited from earlier work"}, "[9]": {"system": "experimental inflammatory arthritis", "conditions": "oral; cited from earlier work"}, "[10]": {"assay": "Phase I repeated dose study, peak and trough concentrations at steady conditions", "assay_type": "in vivo, human", "conditions": "200 mg once daily"}, "[11]": {"conditions": "50 mg AP1189 once daily plus MTX"}, "[12]": {"conditions": "100 mg AP1189 once daily plus MTX"}}, "data": [{"smiles": "NC(N)=N/N=C/C=C/c1cccn1-c1ccccc1[N+](=O)[O-]", "note": "[AP1189, (E)-N-trans-{3-[1-(2-nitrophenyl)-1H-pyrrol-2-yl]-allylidene}-aminoguanidium acetate]", "values": [{"measurement": "anti-inflammatory action in peritonitis", "setting": "[1]", "value": "elicits anti-inflammatory actions"}, {"measurement": "reduction of neutrophil accumulation compared to pretreatment with vehicle", "setting": "[2]", "value": 70, "unit": "%"}, {"measurement": "reduction of IL-1β levels compared to pretreatment with vehicle", "setting": "[2]; p<0.05 vs vehicle", "value": 37, "unit": "%"}, {"measurement": "reduction of IL-6 levels compared to pretreatment with vehicle", "setting": "[2]; p<0.05 vs vehicle", "value": 59, "unit": "%"}, {"measurement": "ERK1/2 phosphorylation", "setting": "[3]; MC3R", "value": "cause ERK1/2 phosphorylation"}, {"measurement": "canonical cAMP generation", "setting": "[3]; MC3R", "value": "does not induce canonical CAMP generation"}, {"measurement": "agonist character at MC3R", "setting": "[3]", "value": "biased agonist"}, {"measurement": "melanogenesis", "setting": "[4]", "value": "no melanogenesis was induced"}, {"measurement": "CDAI group mean, Baseline", "setting": "[5]; [11]", "value": 36.1}, {"measurement": "CDAI group mean, Screening", "setting": "[5]; [11]", "value": 35.6}, {"measurement": "CDAI group mean, Week 4", "setting": "[5]; [11]", "value": 24.2}, {"measurement": "CDAI group mean, Week 2", "setting": "[5]; [11]", "value": 29.9}, {"measurement": "CDAI group mean, Week 5", "setting": "[5]; [11]", "value": 22.9}, {"measurement": "CDAI Difference", "setting": "[5]; [11]", "value": "−11.9"}, {"measurement": "CDAI Difference in %", "setting": "[5]; [11]", "value": 33, "unit": "%"}, {"measurement": "CDAI group mean, Baseline", "setting": "[5]; [12]", "value": 39}, {"measurement": "CDAI group mean, Screening", "setting": "[5]; [12]", "value": 38.9}, {"measurement": "CDAI group mean, Week 4", "setting": "[5]; [12]", "value": 23.9}, {"measurement": "CDAI group mean, Week 2", "setting": "[5]; [12]", "value": 28.9}, {"measurement": "CDAI group mean, Week 5", "setting": "[5]; [12]", "value": 21.3}, {"measurement": "CDAI Difference", "setting": "[5]; [12]", "value": "−15.1"}, {"measurement": "CDAI Difference in %", "setting": "[5]; [12]", "value": 39, "unit": "%"}, {"measurement": "effect in reducing CDAI", "setting": "[5]; both tested dosages, 50 mg and 100 mg", "value": "significant effect"}, {"measurement": "cytokine release", "setting": "[6]", "value": "reduce cytokine release"}, {"measurement": "DAP Average/Median", "setting": "[7]; 50 mg AP1189, 4 Weeks, n 33", "value": 79.9, "unit": "mmHg"}, {"measurement": "SAP Average/Median", "setting": "[7]; 50 mg AP1189, 4 Weeks, n 33", "value": 129.1, "unit": "mmHg"}, {"measurement": "MAP Average/Median", "setting": "[7]; 50 mg AP1189, 4 Weeks, n 33", "value": 96.3, "unit": "mmHg"}, {"measurement": "CNA (clinically notable vital sign abnormalities)", "setting": "[7]; 50 mg AP1189, 4 Weeks, n 33", "value": "2 (6%)"}, {"measurement": "DAP Average/Median", "setting": "[7]; 50 mg AP1189, Base Line, n 33", "value": 80.0, "unit": "mmHg"}, {"measurement": "SAP Average/Median", "setting": "[7]; 50 mg AP1189, Base Line, n 33", "value": 131.3, "unit": "mmHg"}, {"measurement": "MAP Average/Median", "setting": "[7]; 50 mg AP1189, Base Line, n 33", "value": 97.1, "unit": "mmHg"}, {"measurement": "CNA (clinically notable vital sign abnormalities)", "setting": "[7]; 50 mg AP1189, Base Line, n 33", "value": "4 (11%)"}, {"measurement": "decrease in DAP after 4 weeks treatment", "setting": "[7]; 50 mg AP1189 group", "value": 0.1, "unit": "mmHg"}, {"measurement": "decrease in MAP after 4 weeks treatment", "setting": "[7]; 50 mg AP1189 group", "value": 0.8, "unit": "mmHg"}, {"measurement": "decrease in SAP after 4 weeks treatment", "setting": "[7]; 50 mg AP1189 group", "value": 2.2, "unit": "mmHg"}, {"measurement": "DAP Average/Median", "setting": "[7]; 100 mg AP1189, 4 Weeks, n 34", "value": 80.3, "unit": "mmHg"}, {"measurement": "SAP Average/Median", "setting": "[7]; 100 mg AP1189, 4 Weeks, n 34", "value": 126.8, "unit": "mmHg"}, {"measurement": "MAP Average/Median", "setting": "[7]; 100 mg AP1189, 4 Weeks, n 34", "value": 95.8, "unit": "mmHg"}, {"measurement": "CNA (clinically notable vital sign abnormalities)", "setting": "[7]; 100 mg AP1189, 4 Weeks, n 34", "value": "1 (3%)"}, {"measurement": "DAP Average/Median", "setting": "[7]; 100 mg AP1189, Base Line, n 34", "value": 81.1, "unit": "mmHg"}, {"measurement": "SAP Average/Median", "setting": "[7]; 100 mg AP1189, Base Line, n 34", "value": 129.9, "unit": "mmHg"}, {"measurement": "MAP Average/Median", "setting": "[7]; 100 mg AP1189, Base Line, n 34", "value": 97.4, "unit": "mmHg"}, {"measurement": "CNA (clinically notable vital sign abnormalities)", "setting": "[7]; 100 mg AP1189, Base Line, n 34", "value": "4 (11%)"}, {"measurement": "decrease in DAP after 4 weeks treatment", "setting": "[7]; 100 mg AP1189 group", "value": 0.8, "unit": "mmHg"}, {"measurement": "decrease in MAP after 4 weeks treatment", "setting": "[7]; 100 mg AP1189 group", "value": 1.6, "unit": "mmHg"}, {"measurement": "decrease in SAP after 4 weeks treatment", "setting": "[7]; 100 mg AP1189 group", "value": 3.1, "unit": "mmHg"}, {"measurement": "number of observed abnormalities in blood pressure", "setting": "[7]; both treatment groups (50 mg and 100 mg), 4 weeks, no change in placebo group", "value": "reduced"}, {"measurement": "ERK1/2 phosphorylation", "setting": "[8]; MC1R", "value": "cause ERK1/2 phosphorylation"}, {"measurement": "canonical cAMP generation", "setting": "[8]; MC1R", "value": "does not induce canonical CAMP generation"}, {"measurement": "agonist character at MC1R", "setting": "[8]", "value": "biased agonist"}, {"measurement": "macroscopic and histological parameters of joint disruption", "setting": "[9]", "value": "significant reduction"}, {"measurement": "C Trough (Mean +/− SD, N = 9)", "setting": "[10]", "value": "186 ± 45", "unit": "ng/mL"}]}]}
